{"source": "paper PMC12749748", "about": "“Chemically-induced degradation of the endoplasmic-reticulum stress sensor IRE1 by a VHL-recruiting chimera” (Nature Communications, 2025)", "key": {"BRD4": {"test_system": "BRD4", "parameters": "method as in earlier work", "conditions": "VHL:PROTAC:BRD4; cited from earlier work"}, "VCB (VHL:EloC:EloB)": {"target": "VCB (VHL:EloC:EloB) (Homo sapiens, UniProt P40337)", "assay": "Surface plasmon resonance, binary interaction with VCB", "assay_type": "binding", "conditions": "SPR, immobilised VCB, 20 °C, 1 to 1 kinetic model", "experimental": "All SPR experiments in this paper were recorded on a Biacore S200 instrument; all protein captures and data collection were at 20 °C.\nFor binary interactions with G6374: a Xantec SAHC 200 M (streptavidin) chip was inserted into the instrument and primed into running buffer [50 mM HEPES (pH 7.4), 150 mM NaCl, 0.001% Tween 20, 0.2% PEG3350, 0.25 mM TCEP, and 2% DMSO]. Biotinylated human IRE1.KR protein was captured on FC2 to 2-4000 RU, biotinylated VHL in complex with Elongin B (VHL/EloB) was captured on FC4 to 1-2000 RU, data were collected, and all referenced to FC1. Affinity for G6374 was measured using a titration series, injected from low to high with an 8-point, 2-fold dilution dose response with a top concentration of 0.5 μM in both single cycle (single cycle kinetics (SCK)) and multi cycle kinetics (MCK) formats. For MCK experiments, an association time of 45 s and a dissociation time of 200 s with a flow rate of 50 μL/min. For SCK experiments, an association time of 45 s and a dissociation time of 2000 s with a flow rate of 50 μL/min were used. All data were analyzed using Insight software (Cytiva) using a 1 to 1 kinetic binding model."}, "IRE1:VHL [1]": {"target": "T1, IRE1:VHL (Homo sapiens, UniProt O75460+P40337)", "assay": "co-IP of endogenous VHL with endogenous IRE1 from AMO1 cells", "assay_type": "cell-based", "parameters": "co-IP of endogenous VHL with endogenous IRE1 from AMO1 cells; endogenous in cells; host or cells: AMO1", "conditions": "G5758 in excess of G6374", "experimental": "(§1) Cells were lysed in buffer containing 20 mM HEPES 7.2, 150 mM NaCl, and 1% Triton X-100, supplemented with fresh protease and phosphatase inhibitors (Invitrogen, #78440), cleared by centrifugation at 12,000 × g for 10 min, and analyzed by BCA protein assay (Thermo Fisher Scientific, #23227). Equal protein amounts were loaded, separated by SDS-PAGE, electrotransferred to nitrocellulose membranes using the iBLOT2 system (Invitrogen), and blocked in 5% nonfat milk solution for 60 min. Membranes were probed with primary antibodies at 1:1000 dilution in 5% milk at 4 °C overnight. Signal was detected using appropriate horseradish peroxidase (HRP)-conjugated secondary antibodies at 1:10,000 in 5% milk at room temperature for 1–2 h. Bands were visualized by the Azure 600 western blot imaging system (Azure Biosystems). For in vitro ubiquitination assays performed with Me-Ub, bands were visualized by the Odyssey CLx Imager (LI‑COR) after incubating the blots with the IRDye 800CW (LI-COR) secondary antibodies at 1:10,000 in Intercept Blocking Buffer (LI-COR) at room temperature for 1–2 h.\nIRE1.LD antibodies were conjugated to agarose beads using the AminoLink® Plus Immobilization Kit (Thermo Fisher, #44894). […]"}, "IRE1:VHL [2]": {"target": "T1, IRE1:VHL", "assay": "NanoBRET IRE1:VHL interaction, WT IRE1, HEK293T cells", "assay_type": "cell-based", "parameters": "N2731 (HaloTag-VHL); host or cells: HEK293T", "conditions": "HEK293T, 1 µM G6374 and a titration of G5758", "experimental": "8 × 10^5 293T cells per well were seeded in 6-well plates (Costar, #3516) and incubated at 37 °C, 5% CO2 for 6 h. A mixture of 0.2 µg ERN1 (IRE1)-NanoLuc Fusion Vector (Promega, NV1321), 2 µg HaloTag-VHL Fusion Vector (Promega, N2731), 6 µl FuGENE HD Transfection Reagent (Promega, E2311), and 100 µL Opti-MEM I reduced serum medium (Gibco, #31985062) per well was incubated at room temperature for 20 min before adding to cells. For expression of IRE1 mutants, site-directed mutagenesis was performed using the ERN1-NanoLuc Fusion Vector as the DNA template, and the transfection mixture was prepared in the same way as WT IRE1. After 18 h, cells from 6-well plates were trypsinized, resuspended in Opti-MEM I reduced serum medium, and reseeded into 96-well plates (Costar, #3917), with or without the addition of HaloTag NanoBRET 618 Ligand (Promega, G9801). […] After 2 h of G6374 treatment, NanoBRET Nano-Glo Substrate (Promega, N1571) was added to cells. The 96-well plates were imaged by GloMax Discover Microplate Reader (Promega, GM3000) with the default “BRET: NanoBRET 618” protocol (Donor: 450 BP; Acceptor: 600 LP; Integration: 0.3 s). Data analysis was performed according to the user manual."}, "WDR5": {"test_system": "WDR5", "parameters": "method as in earlier work", "conditions": "VHL:PROTAC:WDR5; cited from earlier work"}, "OPM2 cells": {"test_system": "OPM2 cells", "assay": "Incucyte cell confluency, OPM2 cells", "assay_type": "cell-based", "conditions": "OPM2 shIRE1 cells, titration", "experimental": "(§2) For non-adherent AMO1, KMS27, and OPM2 cells, cells were plated at 5000 cells/well in ultra-low attachment (ULA) 96-well plates (Costar, #7007) and centrifuged at 600 × g for 5 min for spheroid formation. For adherent U2OS and Colo201 cells, 2000 cells/well were seeded in a clear flat-bottom 96-well plate (Costar, #3595). Treatments were added at the time of cell seeding, and cells were cultured in complete RPMI media to a final volume of 200 µL/well. Cultures were maintained at 37 °C throughout the duration of the experiment. Cell confluency was tracked using the Incucyte live-cell imaging system (Sartorius S3). Picture frames were captured every 4 h with a 4× objective, and cell confluency (%) from the total well area as a function of time was calculated using the Incucyte software (version 2023 A Rev2)."}, "IRE1": {"target": "IRE1 (Homo sapiens, UniProt O75460)", "assay": "Endogenous IRE1 protein levels in AMO1 or H929 cells (immunoblot)", "assay_type": "cell-based", "parameters": "Immunoblot (IB) analysis of endogenous IRE1 depletion in AMO1 cells; endogenous in cells; host or cells: AMO1, KMS27, H929", "conditions": "1 µM, 4 hr", "experimental": "as §1"}, "AMO1 cells": {"test_system": "AMO1 cells", "assay": "Incucyte cell confluency, AMO1 cells", "assay_type": "cell-based", "experimental": "as §2"}, "KMS27 cells": {"test_system": "KMS27 cells", "assay": "Incucyte cell confluency, KMS27 cells", "assay_type": "cell-based", "conditions": "KMS27 shIRE1 cells, titration", "experimental": "as §2"}, "[3]": {"test_system": "IRE1-dependent or -independent cell lines", "assay": "Incucyte, IRE1-dependent or -independent cell lines together", "assay_type": "cell-based", "experimental": "as §2"}}, "data": [{"compound": "Cc1ncsc1-c1ccc(CNC(=O)[C@@H]2C[C@@H](O)CN2C(=O)[C@@H](NC(=O)COCCOCCOCCNC(=O)C[C@@H]2N=C(c3ccc(Cl)cc3)c3c(sc(C)c3C)-n3c(C)nnc32)C(C)(C)C)cc1", "note": "[MZ1]", "values": [{"measurement": "DC50", "setting": "BRD4", "result": "[…]"}, {"measurement": "Dmax", "setting": "BRD4", "result": "[…]"}]}, {"compound": "CC(=O)N[C@H](C(=O)N1C[C@H](O)C[C@H]1C(=O)NCc1ccc(-c2scnc2C)cc1)C(C)(C)C", "note": "[VH032, reference compound]", "values": [{"measurement": "ka", "setting": "VCB (VHL:EloC:EloB)", "result": 550000, "unit": "M⁻¹ s⁻¹"}, {"measurement": "kd", "setting": "VCB (VHL:EloC:EloB)", "result": 0.13, "unit": "s⁻¹"}]}, {"compound": "O=S(=O)(Cc1ccccc1)Nc1c(F)cc(Oc2ncccc2-c2ccnc(N[C@@H]3CNC[C@@H](F)C3)n2)c(F)c1F", "note": "[G5758, reference compound]", "values": [{"measurement": "competition with G6374-induced IRE1:VHL association and IRE1 depletion (co-IP)", "setting": "IRE1:VHL [1]", "result": "attenuated the induced association between IRE1 and VHL as well as the depletion of IRE1"}, {"measurement": "disruption of G6374-induced IRE1:VHL interaction (NanoBRET)", "setting": "IRE1:VHL [2]", "result": "could disrupt G6374-induced interaction between IRE1 and VHL"}]}, {"compound": "Cc1ncsc1-c1ccc([C@H](C)NC(=O)[C@@H]2C[C@@H](O)CN2C(=O)[C@@H](NC(=O)CNC(=O)c2ccc(F)c(-c3ccc(N4C[C@@H](C)N(C)[C@@H](C)C4)c(NC(=O)c4c[nH]c(=O)cc4C(F)(F)F)c3)c2)C(C)(C)C)cc1", "note": "[MS67]", "values": [{"measurement": "DC50", "setting": "WDR5", "result": 3.7, "unit": "nM"}, {"measurement": "Dmax", "setting": "WDR5", "result": 94, "unit": "%"}]}, {"compound": "Cc1ncsc1-c1ccc(CNC(=O)[C@@H]2C[C@H](O)CN2C(=O)[C@@H](NC(=O)CCCCN2CCN(C3CCC(Nc4ncc5ccc(=O)n(C(C)C)c5n4)CC3)CC2)C(C)(C)C)cc1", "note": "(some centres unmarked) [G2642]", "values": [{"measurement": "growth inhibition (cell confluency)", "setting": "OPM2 cells", "result": "neither its epimer control G2642, nor the VHL ligand VH032, induced a concentration-dependent growth inhibition"}, {"measurement": "degradation of cellular IRE1", "setting": "IRE1", "result": "does not degrade cellular IRE1"}, {"measurement": "growth inhibition (cell confluency)", "setting": "AMO1 cells; AMO1 shIRE1 cells, titration", "result": "neither its epimer control G2642, nor the VHL ligand VH032, induced a concentration-dependent growth inhibition"}, {"measurement": "growth inhibition (cell confluency)", "setting": "KMS27 cells", "result": "neither its epimer control G2642, nor the VHL ligand VH032, induced a concentration-dependent growth inhibition"}, {"measurement": "anti-proliferative activity", "setting": "[3]", "result": "no anti-proliferative activity"}]}, {"compound": "CC(=O)c1cnc2ccc(-c3cc(Cl)c(O)c(Cl)c3)nc2c1N[C@H]1CC[C@H](CN(C)C)CC1", "note": "[OTSSP167, reference compound]", "values": [{"measurement": "proliferation of AMO1 cells", "setting": "AMO1 cells; at 3X the IC50 of OTSSP167", "result": "did not"}]}]}
